Results on 15 compounds are retold here after PubChem BioAssay (NCI).

Each structure is given as a SMILES string.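 Assay format: 96-well plates, 48-hour exposure. GI50 = concentration required for 50% inhibition of growth. TGI: concentration producing complete growth inhibition.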

Test systems include SN12C renal; A549 NSCLC; HCC-2998 colon; HS 578T breast; T-47D breast; COLO 205 colon; SF-295 CNS; SW-620 colon.
Test in all cases: NCI tumour cell line growth inhibition, 48 h

Turning to `Cn1cc(-c2nonc2-c2cn(C)c3ccccc23)c2ccccc21`, the GI50 was 1760 nM in the assay on SN12C renal; 1220 nM with A549 NSCLC; 3070 nM in the assay with HCC-2998 colon; 508 nM in the assay with HS 578T breast; 4.77 µM in the assay on T-47D breast; 2540 nM in the assay on COLO 205 colon. The GI50 in the assay with SF-295 CNS was 420 nM; with SW-620 colon, 425 nM. Besides, the TGI in the assay on SN12C renal was greater than 100 µM; in the assay on A549 NSCLC, greater than 100 µM; with HCC-2998 colon it was greater than 100 µM; with HS 578T breast, 24.6 µM; in the assay on T-47D breast, greater than 100 µM; in the assay with COLO 205 colon, greater than 100000 nM. Further, the TGI in the assay with SF-295 CNS and in the assay with SW-620 colon was greater than 100 µM in each case.
As to `CCn1c2ccccc2c2cc(/C=C(/C#N)C(N)=O)ccc21`, the GI50 is 43600 nM in the assay on SN12C renal; 20300 nM in the assay with A549 NSCLC; 4220 nM in the assay with HCC-2998 colon; 5690 nM with HS 578T breast; 3.33 µM in the assay on T-47D breast; 4650 nM in the assay on COLO 205 colon. Also, the results for the GI50 in the assay with SF-295 CNS and in the assay with SW-620 colon were 3420 nM and 4860 nM, respectively. The TGI with SN12C renal was greater than 100 µM; with A549 NSCLC, greater than 100 µM; in the assay with HCC-2998 colon it was 25.3 µM; in the assay on HS 578T breast it was 39.7 µM; with T-47D breast it was greater than 100 µM; with COLO 205 colon, greater than 100000 nM. Further, the TGI in the assay with SF-295 CNS is 30 µM; in the assay with SW-620 colon it was greater than 100 µM.
Regarding `COc1cc2c(c(OC)c1OC)-c1ccc(SC)c(=O)cc1[C@@H](NC1OC(CO)C(O)C(O)C1O)CC2` (some centres not stated), the GI50 with SN12C renal is 55.7 nM; with A549 NSCLC it was 38.5 nM; in the assay on HCC-2998 colon, 36.8 nM; in the assay on HS 578T breast, 42.5 nM; in the assay on T-47D breast, greater than 74.9 µM; in the assay on COLO 205 colon, 16.1 nM. Moreover, the GI50 in the assay with SF-295 CNS was 33.8 nM; in the assay with SW-620 colon, 29.4 nM. The TGI in the assay with SN12C renal is greater than 100 µM; with A549 NSCLC, greater than 100 µM; in the assay on HCC-2998 colon, greater than 100 µM; in the assay on HS 578T breast it was 61 µM; in the assay on T-47D breast it was greater than 100 µM; in the assay on COLO 205 colon, 41.2 nM. For the same compound, the TGI with SF-295 CNS and in the assay on SW-620 colon was greater than 100 µM in each case.
Consider `CCN1C(=O)N(CC)C2C1NN=c1s/c(=C3\C(=O)N(CCc4ccccc4)c4ccccc43)c(=O)n12` (configuration not stated), for which the GI50 was 1340 nM with SN12C renal; 638 nM with A549 NSCLC; 1150 nM in the assay with HCC-2998 colon; 449 nM in the assay on HS 578T breast; 1.19 µM with T-47D breast; 322 nM in the assay with COLO 205 colon. Also, the values for the GI50 in the assay on SF-295 CNS and in the assay with SW-620 colon were 363 nM and 492 nM, respectively. Besides, the TGI in the assay on A549 NSCLC was greater than 39.5 µM; in the assay on HCC-2998 colon, greater than 25 µM; in the assay with HS 578T breast, 6.37 µM; in the assay on T-47D breast, greater than 23.9 µM; in the assay with COLO 205 colon, 1800 nM; in the assay on SF-295 CNS it was 7.75 µM. Further, in the assay with SW-620 colon, the TGI is greater than 100 µM.
With `COc1ccc(/C=N/NC(=O)Cn2c(-c3ccc(S(C)(=O)=O)cc3)nc3cc(Cl)ccc32)cc1`, the GI50 with SN12C renal is 2590 nM; with A549 NSCLC, 1970 nM; with HCC-2998 colon, 1850 nM; with HS 578T breast it was 1770 nM; in the assay on T-47D breast, 3.22 µM; in the assay with COLO 205 colon, 907 nM. In addition, the GI50 in the assay on SF-295 CNS was 1470 nM; in the assay on SW-620 colon, 1210 nM. Moreover, the TGI in the assay with SN12C renal was greater than 50 µM; in the assay with A549 NSCLC, greater than 50 µM; with HCC-2998 colon, 12.5 µM; in the assay on HS 578T breast, greater than 50 µM; in the assay with T-47D breast it was greater than 50 µM; in the assay on COLO 205 colon, 2420 nM. Besides, the TGI with SF-295 CNS and with SW-620 colon was greater than 50 µM in each case.
Turning to `Nc1ccc(-c2nc3ccccc3[nH]2)c2ccccc12`, the GI50 is 10100 nM in the assay with SN12C renal; 6600 nM in the assay with A549 NSCLC; 2460 nM with HCC-2998 colon; 3500 nM in the assay on HS 578T breast; 11.6 µM in the assay with T-47D breast; 3410 nM in the assay on COLO 205 colon. Also, the GI50 is 1560 nM in the assay on SF-295 CNS and 1400 nM in the assay on SW-620 colon. In addition, the TGI was 59.7 µM in the assay on SN12C renal; 50.3 µM in the assay on A549 NSCLC; 10.5 µM in the assay on HCC-2998 colon; greater than 30 µM in the assay on HS 578T breast; greater than 61.6 µM with T-47D breast; 24600 nM in the assay on COLO 205 colon. Moreover, the TGI in the assay on SF-295 CNS is greater than 28.9 µM; in the assay with SW-620 colon, greater than 100 µM.
As for `N#Cc1c(N)[nH]c2ccc(Sc3ccccc3)cc12`, the TGI is 6.64 µM with SN12C renal; 12.1 µM with A549 NSCLC; 17.3 µM in the assay with HCC-2998 colon; 25.8 µM in the assay with HS 578T breast; 23 µM with T-47D breast; 1340 nM in the assay on COLO 205 colon. The values for the TGI with SF-295 CNS and in the assay with SW-620 colon were 4.96 µM and 16.9 µM, respectively.
Regarding `N#CN1CC[C@H](C(=O)Nc2ncc(-c3ccncc3)s2)C1`, the GI50 is less than 27.7 nM in the assay with SN12C renal; 262 nM in the assay with A549 NSCLC; 84.4 nM with HCC-2998 colon; 94.8 nM in the assay on HS 578T breast; less than 0.0177 µM in the assay with T-47D breast; less than 14.1 nM in the assay on COLO 205 colon. Further, the GI50 with SF-295 CNS was 226 nM; in the assay on SW-620 colon, 23 nM. Moreover, the TGI is 38.4 µM in the assay with SN12C renal; greater than 100 µM in the assay with A549 NSCLC; 11 µM in the assay with HCC-2998 colon; 4.66 µM in the assay on HS 578T breast; 1.24 µM in the assay with T-47D breast; 45 nM in the assay with COLO 205 colon. For the same compound, the TGI was greater than 38.9 µM with SF-295 CNS and 19.5 µM with SW-620 colon.
Regarding `CN(CC(N)=O)C(=O)N(CCCl)N=O`, the TGI with SN12C renal is greater than 100 µM; in the assay on A549 NSCLC, greater than 100 µM; with HCC-2998 colon, greater than 100 µM; in the assay with HS 578T breast, greater than 100 µM; in the assay on T-47D breast it was greater than 100 µM; in the assay with COLO 205 colon it was greater than 100000 nM. Besides, the TGI with SF-295 CNS and in the assay on SW-620 colon was greater than 100 µM each time.
Regarding `Cc1cccc(NC(=O)c2sc3nc4c(cc3c2N)CN(Cc2ccccc2)CC4)c1C`, the GI50 in the assay with SN12C renal was 313 nM; in the assay with A549 NSCLC, 381 nM; in the assay with HCC-2998 colon, 5390 nM; with HS 578T breast it was 189 nM; in the assay with T-47D breast, 0.226 µM; with COLO 205 colon, 274 nM. For the same compound, the GI50 in the assay with SF-295 CNS is 161 nM; with SW-620 colon it was 207 nM. Also, the TGI in the assay on SN12C renal is greater than 50 µM; with A549 NSCLC, greater than 50 µM; with HCC-2998 colon, greater than 50 µM; in the assay with HS 578T breast, greater than 50 µM; with T-47D breast, greater than 50 µM; in the assay on COLO 205 colon, greater than 50000 nM. Further, the TGI with SF-295 CNS was 41.6 µM; in the assay on SW-620 colon, greater than 50 µM.
Take `COC(=O)c1nc(-c2ccccc2)oc1S(=O)(=O)n1nc(C)cc1N`: the GI50 was 5640 nM in the assay with SN12C renal; 28900 nM in the assay on A549 NSCLC; 18200 nM in the assay with HCC-2998 colon; 25800 nM in the assay on HS 578T breast; 3.84 µM in the assay on T-47D breast; 2110 nM in the assay on COLO 205 colon. For the same compound, the GI50 in the assay with SF-295 CNS is 29700 nM; with SW-620 colon, 3220 nM. The TGI is 19.7 µM in the assay on SN12C renal; 84 µM with A549 NSCLC; 32.2 µM in the assay with HCC-2998 colon; 90.2 µM with HS 578T breast; 18.3 µM in the assay with T-47D breast; 3920 nM in the assay on COLO 205 colon. Further, the TGI in the assay on SF-295 CNS is greater than 100 µM; in the assay with SW-620 colon, 11.2 µM.
On to `CC(C)(C)c1ccc(C(=O)Nc2sc3c(c2C(N)=O)CCC(=O)C3)cc1`, for which the GI50 is 654 nM in the assay on SN12C renal; 688 nM in the assay with A549 NSCLC; 1970 nM in the assay with HCC-2998 colon; 1110 nM in the assay with HS 578T breast; 0.261 µM in the assay with T-47D breast; 617 nM in the assay with COLO 205 colon. The GI50 with SF-295 CNS is 1210 nM; in the assay with SW-620 colon it was 187 nM. In addition, the TGI amounted to 2.05 µM with SN12C renal; 3.28 µM in the assay on A549 NSCLC; 4.22 µM in the assay with HCC-2998 colon; 5.33 µM in the assay with HS 578T breast; 1.65 µM with T-47D breast; 1630 nM with COLO 205 colon. Further, the TGI with SF-295 CNS amounted to 2.73 µM; in the assay with SW-620 colon, 1.28 µM.
On to `CCN1C(=O)N(CC)C2C1NN=c1s/c(=C\c3ccccc3Br)c(=O)n12` (configuration not stated), for which the GI50 in the assay on SN12C renal was 51.9 nM; in the assay with A549 NSCLC it was 40.8 nM; with HCC-2998 colon, 39.2 nM; in the assay with HS 578T breast, 35.5 nM; with T-47D breast it was 13.5 µM; in the assay on COLO 205 colon, 30 nM. In addition, the GI50 in the assay with SF-295 CNS was 28.6 nM; in the assay on SW-620 colon it was 37 nM. For the same compound, the TGI in the assay with SN12C renal is 31.2 µM; with A549 NSCLC, greater than 75.3 µM; in the assay on HCC-2998 colon, 4.12 µM; with HS 578T breast, 20.5 µM; in the assay with T-47D breast, 57.9 µM; with COLO 205 colon, 118 nM. The results for the TGI in the assay on SF-295 CNS and with SW-620 colon were 15.1 µM and greater than 54.2 µM, respectively.
In the case of `CCC1(O)C(=O)OCc2c1cc1n(c2=O)Cc2cc3cc(N)ccc3nc2-1` (configuration not stated), the TGI with SN12C renal is 0.697 µM; in the assay with A549 NSCLC, 2.41 µM; with HCC-2998 colon it was 1.37 µM; in the assay on HS 578T breast, greater than 95.2 µM; in the assay on T-47D breast it was greater than 100 µM; in the assay with COLO 205 colon it was 7250 nM. Also, the TGI with SF-295 CNS was 0.36 µM; with SW-620 colon, greater than 100 µM.
On to `CC1(C)CCC[C@]2(C)[C@@H](C=O)C(C=O)=CC[C@@H]12`, for which the TGI with SN12C renal was 39.9 µM; in the assay with A549 NSCLC, greater than 100 µM; in the assay on HCC-2998 colon, 32.7 µM; in the assay on HS 578T breast it was greater than 100 µM; in the assay on T-47D breast, 60.3 µM; in the assay with COLO 205 colon, 36500 nM. Besides, the results for the TGI in the assay on SF-295 CNS and in the assay with SW-620 colon were 75.1 µM and greater than 100 µM, respectively.
